From ChEMBL document CHEMBL1201862, “PubChem BioAssay data set” (2004)
Activity calls are given as the source filed them.

Key:
[1] = microbe, parasite or virus in culture; assay type: functional; settings: Mycobacterium tuberculosis
[2] = biological target: NACHT, LRR and PYD domains-containing protein 3 (Homo sapiens, UniProt Q96P20); test: NALP3 inhibitors in yeast, dose response, luminescent (AID 488799); assay type: functional
[3] = biological target: Serine/threonine-protein phosphatase PP1-alpha catalytic subunit (Homo sapiens, UniProt P62136); test: inhibition of protein phosphatase 1 activity – biochemical, fluorescence, dose response (AID 2403);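 also: phosphatase turnover of OMFP into fluorescent 3-O-methylfluorescein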
[4] = Trypanosoma cruzi growth suppression in host cells – NIH3T3 host cells, beta-gal luminescence, confirmation (AID 2044); assay type: functional, cell-based;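 also: intracellular parasites grown in NIH/3T3 mouse fibroblasts as host cells; luminescent beta-galactosidase reporter signal from transgenic T. cruzi replicating inside host cells; inhibitors lower the luminescence signal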
[5] = biological target: Serine/threonine-protein phosphatase (Homo sapiens, UniProt Q9BPW0); test: Counterscreen for inhibitors of PP1: fluorescence-based biochemical high throughput dose response assay to identify inhibitors of Protein Phosphatase 5 (PP5). [Related pubchem assays: 2034 (Summary (PP5 inhibitors)), 1987 (PP5 inhibitors in singlate), 2235 (PP1 inhibitors in singlate)]
[6] = NIH3T3 cell viability loss – ATP luminescence, mouse fibroblasts, counter-screen, dose response (AID 2010); assay type: functional, cell-based;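 also: cells exposed to compound for about 90 hours before reading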
[7] = reduction of Shn3 3'UTR-driven luciferase in osteoblasts – cell-based, Clone20 osteoblasts, firefly luciferase, cherry-picked, dose response (AID 624132); assay type: functional;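 also: firefly luciferase luminescence from reporter carrying the Shn3 3'UTR in osteoblasts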
[8] = loss of viability in HepG2 cells – cell-based, CellTiter-Glo, cherry-picked, cytotoxicity control for Shn3 inhibitor project, dose response (AID 624134); assay type: functional
[9] = non-specific 3'UTR reporter inhibition in Clone20-Shn3RL – cell-based, Renilla luciferase, cherry-picked, counter-screen for Shn3 inhibitor project, dose response (AID 624133); assay type: functional
[10] = biological target: T1, Tyrosine-protein phosphatase non-receptor type 7 (Homo sapiens, UniProt P35236); test: SAR analysis of chemical inhibitors of HePTP using a Fluorescent assay - Set 2. [Related pubchem assays (depositor defined):AID1059, AID1077, AID1661, AID2085, AID521]; assay type: functional
T1 sequence (P35236 whole entry): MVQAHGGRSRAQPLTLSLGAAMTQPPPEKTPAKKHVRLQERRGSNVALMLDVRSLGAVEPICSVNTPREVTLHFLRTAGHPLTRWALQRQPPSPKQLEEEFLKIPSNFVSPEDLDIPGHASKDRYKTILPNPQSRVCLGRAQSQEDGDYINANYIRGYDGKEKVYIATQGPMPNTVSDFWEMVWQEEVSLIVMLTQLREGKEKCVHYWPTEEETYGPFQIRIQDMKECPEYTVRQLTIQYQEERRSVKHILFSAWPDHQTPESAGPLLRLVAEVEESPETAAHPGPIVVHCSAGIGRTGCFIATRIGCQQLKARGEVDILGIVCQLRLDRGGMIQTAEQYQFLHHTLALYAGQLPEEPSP

[11] = biological target: Dual specificity protein phosphatase 3 (Homo sapiens, UniProt P51452); test: SAR VHR1 Fluorescent Assay for In Vitro dose response studies Set 2. [Related pubchem assays (depositor defined):AID1654, AID1661, AID1878]; assay type: functional
[12] = biological target: T2, Mannose-6-phosphate isomerase (Homo sapiens, UniProt P34949); test: phosphomannose isomerase inhibition – biochemical, fluorescence intensity, confirmation (AID 1535)
T2 sequence (P34949 whole entry): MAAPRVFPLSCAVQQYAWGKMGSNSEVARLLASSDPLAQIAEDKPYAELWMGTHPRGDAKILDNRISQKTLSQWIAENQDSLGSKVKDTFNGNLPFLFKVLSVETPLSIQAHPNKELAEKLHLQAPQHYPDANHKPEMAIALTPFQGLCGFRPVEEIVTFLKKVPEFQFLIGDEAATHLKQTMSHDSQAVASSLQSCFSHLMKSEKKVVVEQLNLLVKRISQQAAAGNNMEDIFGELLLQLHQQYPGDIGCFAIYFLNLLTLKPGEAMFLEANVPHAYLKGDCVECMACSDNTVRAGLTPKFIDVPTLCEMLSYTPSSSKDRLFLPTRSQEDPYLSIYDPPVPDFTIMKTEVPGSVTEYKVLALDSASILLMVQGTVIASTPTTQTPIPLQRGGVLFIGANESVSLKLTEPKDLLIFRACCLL

Phosphomannomutase 2 = Phosphomannomutase 2 (Homo sapiens, UniProt O15305); test: Counter screen SAR assay for PMM2 inhibitors via a fluorescence intensity assay. [Related pubchem assays (depositor defined):AID1545, AID1574]
[13] = biological target: Phosphoethanolamine/phosphocholine phosphatase (Homo sapiens, UniProt Q8TCT1); test: SAR assay for compounds that inhibit PHOSPHO1. [Related pubchem assays (depositor defined):AID1545, AID1565, AID1574]
Beta-galactosidase [14] = biological target: T3, Beta-galactosidase (Escherichia coli, UniProt Q8VNN2); test: PubChem AID 485352; assay type: functional
[15] = biological target: T4, Type-1 angiotensin II receptor (Homo sapiens, UniProt P30556); test: antagonism of angiotensin II type 1 receptor – cell-based, uHTS hits, selectivity assay for APJ receptor antagonist project, dose response (AID 463214); assay type: functional;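 also: antagonist potency against angiotensin II stimulated AT1 response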
T4 sequence (P30556 whole entry): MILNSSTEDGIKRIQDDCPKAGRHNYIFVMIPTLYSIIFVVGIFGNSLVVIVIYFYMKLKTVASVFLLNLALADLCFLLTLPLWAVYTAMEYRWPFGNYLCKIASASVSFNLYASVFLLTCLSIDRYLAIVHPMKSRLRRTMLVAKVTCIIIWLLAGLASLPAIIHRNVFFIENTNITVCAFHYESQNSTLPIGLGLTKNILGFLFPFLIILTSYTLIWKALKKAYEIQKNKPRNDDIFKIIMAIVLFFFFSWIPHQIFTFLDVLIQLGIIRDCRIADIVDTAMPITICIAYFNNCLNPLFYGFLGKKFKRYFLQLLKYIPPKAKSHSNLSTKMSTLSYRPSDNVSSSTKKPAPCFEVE

[16] = biological target: T5, Kappa-type opioid receptor (Homo sapiens, UniProt P41145); assay type: functional
Beta-galactosidase [17] = biological target: T3, Beta-galactosidase; assay type: functional
[18] = biological target: T5, Kappa-type opioid receptor; assay type: functional; remark: listed apart in the source
Hexokinase HKDC1 = biological target: T6, Hexokinase HKDC1 (Homo sapiens, UniProt Q2TB90); test: activation of HKDC1 glucose phosphorylation – biochemical, W721R variant, dose response (AID 504730); assay type: functional
T6 sequence (Q2TB90 whole entry): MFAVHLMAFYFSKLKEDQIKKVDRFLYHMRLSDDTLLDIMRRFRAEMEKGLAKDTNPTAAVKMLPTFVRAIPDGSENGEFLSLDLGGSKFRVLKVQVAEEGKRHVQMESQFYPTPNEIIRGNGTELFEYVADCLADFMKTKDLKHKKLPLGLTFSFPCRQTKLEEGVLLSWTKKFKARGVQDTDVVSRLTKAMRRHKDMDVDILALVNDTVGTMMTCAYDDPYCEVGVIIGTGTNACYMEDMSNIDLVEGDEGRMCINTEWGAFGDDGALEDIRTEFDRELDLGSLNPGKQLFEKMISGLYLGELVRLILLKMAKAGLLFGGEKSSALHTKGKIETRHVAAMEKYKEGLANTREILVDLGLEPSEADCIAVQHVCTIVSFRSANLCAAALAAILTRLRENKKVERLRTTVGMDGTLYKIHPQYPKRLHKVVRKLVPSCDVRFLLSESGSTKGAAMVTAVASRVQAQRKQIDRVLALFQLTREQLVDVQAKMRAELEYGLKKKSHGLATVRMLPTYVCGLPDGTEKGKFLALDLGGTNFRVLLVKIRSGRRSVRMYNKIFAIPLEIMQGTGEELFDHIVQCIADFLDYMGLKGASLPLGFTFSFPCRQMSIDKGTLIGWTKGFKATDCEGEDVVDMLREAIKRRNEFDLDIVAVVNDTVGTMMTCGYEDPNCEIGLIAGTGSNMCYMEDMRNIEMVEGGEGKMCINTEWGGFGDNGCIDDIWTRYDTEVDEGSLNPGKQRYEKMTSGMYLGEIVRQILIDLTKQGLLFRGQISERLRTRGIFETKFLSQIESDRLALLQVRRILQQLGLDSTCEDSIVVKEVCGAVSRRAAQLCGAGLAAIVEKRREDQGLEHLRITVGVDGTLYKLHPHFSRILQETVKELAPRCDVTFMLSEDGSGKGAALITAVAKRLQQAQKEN

Hexokinase-1 = Hexokinase-1 (Homo sapiens, UniProt P19367); test: HK1 enzyme activation by HKDC1 hits – biochemical, selectivity assay for HKDC1 activator project, dose response (AID 504762); assay type: functional
[19] = biological target: 26S proteasome non-ATPase regulatory subunit 14 (Homo sapiens, UniProt O00487); test: inhibition of proteasome subunit RPN11 – biochemical, fluorescence polarization, uHTS hits, confirmation (AID 602368); assay type: functional
[20] = biological target: 72 kDa type IV collagenase (Homo sapiens, UniProt P08253); test: Dose Response validation of uHTS RPN11 inhibitor hits using a MMP-2 Fluorescence assay.; assay type: functional
Prothrombin = Prothrombin (Bos taurus, UniProt P00735); test: thrombin protease inhibitors – biochemical, fluorescence polarization, uHTS hits, dose response (AID 602369); assay type: functional
Protein Wnt-3a = Protein Wnt-3a (Mus musculus, UniProt P27467); test: antagonism of Wnt3a pathway luciferase reporter – Wnt-LIGHT cells, luminescence, selectivity assay for Gli-SUFU antagonist project, dose response (AID 651570); assay type: functional; settings: read-out: IC50_Mean;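 also: Wnt-LIGHT reporter cells stimulated with conditioned medium from Wnt3a-producing cells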
Aminopeptidase N = Aminopeptidase N (Plasmodium falciparum FcB1/Columbia, UniProt O96935); test: malaria alanyl aminopeptidase activity blockers – biochemical, fluorogenic H-Leu-NHMec substrate, 1536-well (AID 1445); set-up: species or system Plasmodium falciparum 3D7, 3D7

T5 sequence (P41145 whole entry): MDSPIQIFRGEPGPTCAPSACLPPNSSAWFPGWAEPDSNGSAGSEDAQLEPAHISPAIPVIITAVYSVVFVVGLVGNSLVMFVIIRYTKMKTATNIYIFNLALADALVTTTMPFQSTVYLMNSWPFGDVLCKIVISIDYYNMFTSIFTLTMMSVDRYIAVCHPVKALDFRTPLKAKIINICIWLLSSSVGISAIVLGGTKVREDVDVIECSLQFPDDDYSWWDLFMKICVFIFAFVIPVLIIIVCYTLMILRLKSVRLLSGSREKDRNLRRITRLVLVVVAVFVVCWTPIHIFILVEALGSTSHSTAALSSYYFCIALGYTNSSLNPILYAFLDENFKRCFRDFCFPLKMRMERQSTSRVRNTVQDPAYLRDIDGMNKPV
T3 sequence (Q8VNN2 whole entry): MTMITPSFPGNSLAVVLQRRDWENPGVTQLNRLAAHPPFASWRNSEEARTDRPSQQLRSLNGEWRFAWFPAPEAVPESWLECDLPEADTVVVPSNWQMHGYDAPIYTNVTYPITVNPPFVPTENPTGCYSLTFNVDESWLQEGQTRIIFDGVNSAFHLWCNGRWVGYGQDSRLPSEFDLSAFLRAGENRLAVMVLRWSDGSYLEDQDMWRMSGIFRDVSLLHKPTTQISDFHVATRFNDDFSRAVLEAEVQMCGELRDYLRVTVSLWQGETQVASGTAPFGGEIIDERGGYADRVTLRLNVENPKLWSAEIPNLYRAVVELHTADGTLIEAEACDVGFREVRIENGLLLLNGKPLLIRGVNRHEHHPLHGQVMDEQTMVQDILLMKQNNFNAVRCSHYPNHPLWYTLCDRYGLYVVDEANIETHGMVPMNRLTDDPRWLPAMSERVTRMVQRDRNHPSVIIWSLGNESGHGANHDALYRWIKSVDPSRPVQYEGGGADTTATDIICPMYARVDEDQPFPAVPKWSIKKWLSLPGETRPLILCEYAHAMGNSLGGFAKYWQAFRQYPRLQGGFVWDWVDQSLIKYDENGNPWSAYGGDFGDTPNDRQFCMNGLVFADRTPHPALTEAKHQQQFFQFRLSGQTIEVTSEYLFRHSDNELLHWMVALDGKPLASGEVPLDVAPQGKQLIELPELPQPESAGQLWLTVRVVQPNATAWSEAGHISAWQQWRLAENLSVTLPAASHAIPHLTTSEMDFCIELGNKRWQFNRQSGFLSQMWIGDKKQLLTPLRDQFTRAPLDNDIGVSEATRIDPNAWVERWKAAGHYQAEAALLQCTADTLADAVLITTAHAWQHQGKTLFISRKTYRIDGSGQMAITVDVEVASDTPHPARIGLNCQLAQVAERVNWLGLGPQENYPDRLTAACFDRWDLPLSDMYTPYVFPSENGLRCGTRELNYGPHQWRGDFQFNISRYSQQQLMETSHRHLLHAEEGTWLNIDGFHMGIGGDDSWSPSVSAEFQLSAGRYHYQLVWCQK
Serine/threonine-protein phosphatase PP1-alpha catalytic subunit, sequence (P62136 whole entry): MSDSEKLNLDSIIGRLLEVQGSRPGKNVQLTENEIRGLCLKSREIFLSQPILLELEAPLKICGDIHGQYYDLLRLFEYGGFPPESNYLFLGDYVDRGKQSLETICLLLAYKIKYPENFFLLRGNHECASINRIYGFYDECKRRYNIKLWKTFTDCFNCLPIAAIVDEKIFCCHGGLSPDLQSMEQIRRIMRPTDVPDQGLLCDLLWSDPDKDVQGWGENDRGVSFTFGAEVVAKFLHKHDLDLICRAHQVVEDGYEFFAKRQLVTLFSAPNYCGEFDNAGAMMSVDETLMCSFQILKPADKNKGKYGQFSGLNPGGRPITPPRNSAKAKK
Hexokinase-1, sequence (P19367 whole entry): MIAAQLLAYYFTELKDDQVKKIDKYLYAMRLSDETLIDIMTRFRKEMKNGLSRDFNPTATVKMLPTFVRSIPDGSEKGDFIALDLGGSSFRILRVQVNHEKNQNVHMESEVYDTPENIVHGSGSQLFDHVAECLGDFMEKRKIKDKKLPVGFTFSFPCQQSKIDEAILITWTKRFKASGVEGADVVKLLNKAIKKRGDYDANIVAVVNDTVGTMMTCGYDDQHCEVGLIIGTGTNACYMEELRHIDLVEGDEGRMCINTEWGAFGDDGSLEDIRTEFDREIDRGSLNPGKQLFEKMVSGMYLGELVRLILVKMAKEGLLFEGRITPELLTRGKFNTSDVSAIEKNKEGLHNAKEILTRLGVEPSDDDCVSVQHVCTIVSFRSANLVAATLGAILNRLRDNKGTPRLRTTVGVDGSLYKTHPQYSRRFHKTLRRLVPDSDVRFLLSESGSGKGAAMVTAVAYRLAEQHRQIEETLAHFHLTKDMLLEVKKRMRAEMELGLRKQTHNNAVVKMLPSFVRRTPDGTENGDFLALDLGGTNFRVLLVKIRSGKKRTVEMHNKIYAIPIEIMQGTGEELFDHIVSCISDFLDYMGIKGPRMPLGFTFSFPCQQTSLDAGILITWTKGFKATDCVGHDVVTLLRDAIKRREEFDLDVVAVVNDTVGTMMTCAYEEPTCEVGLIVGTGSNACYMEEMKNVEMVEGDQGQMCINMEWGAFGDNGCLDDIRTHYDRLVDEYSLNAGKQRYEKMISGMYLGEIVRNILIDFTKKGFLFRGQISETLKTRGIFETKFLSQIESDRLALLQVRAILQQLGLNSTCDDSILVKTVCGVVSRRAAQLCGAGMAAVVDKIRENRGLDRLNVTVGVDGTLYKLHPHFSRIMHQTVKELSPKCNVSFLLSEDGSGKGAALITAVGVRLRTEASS
Phosphoethanolamine/phosphocholine phosphatase, sequence (Q8TCT1 whole entry): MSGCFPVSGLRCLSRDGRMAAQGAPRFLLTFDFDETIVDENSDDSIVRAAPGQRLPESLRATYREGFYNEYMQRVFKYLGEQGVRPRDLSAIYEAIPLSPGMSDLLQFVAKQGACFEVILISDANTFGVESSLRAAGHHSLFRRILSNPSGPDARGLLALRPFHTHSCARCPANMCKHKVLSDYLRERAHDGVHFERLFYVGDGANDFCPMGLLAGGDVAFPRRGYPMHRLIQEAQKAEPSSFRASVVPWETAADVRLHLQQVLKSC
Phosphomannomutase 2, sequence (O15305 whole entry): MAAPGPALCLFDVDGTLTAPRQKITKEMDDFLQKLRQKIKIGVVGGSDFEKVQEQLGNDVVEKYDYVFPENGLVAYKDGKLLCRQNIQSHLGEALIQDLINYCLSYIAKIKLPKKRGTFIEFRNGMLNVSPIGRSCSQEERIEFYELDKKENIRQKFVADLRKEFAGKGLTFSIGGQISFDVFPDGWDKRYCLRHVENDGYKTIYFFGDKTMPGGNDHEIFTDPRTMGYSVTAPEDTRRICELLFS
72 kDa type IV collagenase, sequence (P08253 whole entry): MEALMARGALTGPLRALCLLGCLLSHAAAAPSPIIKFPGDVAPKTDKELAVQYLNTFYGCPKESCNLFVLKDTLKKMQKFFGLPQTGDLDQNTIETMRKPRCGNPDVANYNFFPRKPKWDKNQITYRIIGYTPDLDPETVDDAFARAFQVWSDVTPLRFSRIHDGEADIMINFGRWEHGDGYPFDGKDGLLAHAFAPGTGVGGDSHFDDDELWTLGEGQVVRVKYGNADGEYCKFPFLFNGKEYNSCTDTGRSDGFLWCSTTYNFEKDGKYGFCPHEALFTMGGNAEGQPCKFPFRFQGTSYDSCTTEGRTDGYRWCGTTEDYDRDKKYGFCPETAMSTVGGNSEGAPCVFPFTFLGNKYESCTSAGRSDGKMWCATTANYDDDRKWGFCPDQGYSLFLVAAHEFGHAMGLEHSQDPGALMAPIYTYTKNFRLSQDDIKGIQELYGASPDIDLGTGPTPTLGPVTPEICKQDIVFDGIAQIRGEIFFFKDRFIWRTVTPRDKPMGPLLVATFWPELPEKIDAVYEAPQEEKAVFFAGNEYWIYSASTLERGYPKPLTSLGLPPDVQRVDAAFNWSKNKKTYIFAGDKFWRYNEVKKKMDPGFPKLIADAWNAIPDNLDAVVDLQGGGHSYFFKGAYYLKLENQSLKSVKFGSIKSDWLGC
Dual specificity protein phosphatase 3, sequence (P51452 whole entry): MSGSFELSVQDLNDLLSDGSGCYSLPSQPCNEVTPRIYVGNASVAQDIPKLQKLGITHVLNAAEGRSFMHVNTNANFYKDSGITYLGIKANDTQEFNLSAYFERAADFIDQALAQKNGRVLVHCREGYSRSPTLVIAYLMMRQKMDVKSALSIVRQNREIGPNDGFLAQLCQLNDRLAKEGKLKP
26S proteasome non-ATPase regulatory subunit 14, sequence (O00487 whole entry): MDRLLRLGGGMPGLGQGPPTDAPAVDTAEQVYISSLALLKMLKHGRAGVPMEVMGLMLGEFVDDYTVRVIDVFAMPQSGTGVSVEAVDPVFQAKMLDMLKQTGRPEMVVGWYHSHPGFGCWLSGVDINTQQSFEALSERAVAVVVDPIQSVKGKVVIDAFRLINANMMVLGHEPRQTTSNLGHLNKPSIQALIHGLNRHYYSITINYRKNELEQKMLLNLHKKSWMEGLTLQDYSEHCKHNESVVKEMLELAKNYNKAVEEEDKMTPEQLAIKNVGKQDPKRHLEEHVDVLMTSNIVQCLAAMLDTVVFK
Serine/threonine-protein phosphatase, sequence (Q9BPW0 whole entry): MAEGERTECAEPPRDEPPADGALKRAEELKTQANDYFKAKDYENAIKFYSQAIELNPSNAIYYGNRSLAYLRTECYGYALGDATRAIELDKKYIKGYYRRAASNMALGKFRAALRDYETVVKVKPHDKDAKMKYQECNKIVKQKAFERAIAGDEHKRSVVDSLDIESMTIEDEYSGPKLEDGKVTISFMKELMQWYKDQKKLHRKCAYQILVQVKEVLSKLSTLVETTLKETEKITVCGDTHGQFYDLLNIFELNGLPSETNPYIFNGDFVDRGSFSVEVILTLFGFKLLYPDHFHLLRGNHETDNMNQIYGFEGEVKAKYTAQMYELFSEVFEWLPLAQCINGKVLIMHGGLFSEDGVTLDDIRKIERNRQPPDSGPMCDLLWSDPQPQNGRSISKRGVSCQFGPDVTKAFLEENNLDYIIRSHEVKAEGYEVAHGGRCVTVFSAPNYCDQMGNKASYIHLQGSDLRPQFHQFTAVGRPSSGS

O=C(NCCC1=CCCCC1)c1c(O)nc2sccn2c1=O
CC50 [1]: 13.8 µM (active) | IC50 [2]: 3.8 µM (active)

CCOC(=O)c1cnc(-n2nc(C)cc2C)nc1NCc1ccc2c(c1)OCO2
IC50 [3]: 5.21 µM (active) | EC50 [4]: 2.36 µM (active) | IC50 [5]: > 67 µM (not active) | EC50 [6]: > 60 µM (not active) | AC50 [7]: 8.74 µM (active) | AC50 [8]: 63 µM (active) | AC50 [9]: 16.1 µM (active)

Oc1ccc(C(=S)NCc2ccc(F)c(C(F)(F)F)c2)cc1
IC50 [10]: 30.9 µM (active) | IC50 [11]: 40.9 µM (active)

O=c1c2ccc([N+](=O)[O-])cc2sn1-c1cc(C(F)(F)F)ccc1Cl
IC50 [12]: > 50 µM (inactive) | IC50 (Phosphomannomutase 2): > 100 µM (inactive) | IC50 [13]: 0.252 µM (active)

CC(=O)/C(=N\Nc1ccc(Cl)cc1Cl)Sc1cccc2cccnc12
EC50 (Beta-galactosidase [14]): > 40 µM (inactive) | EC50 [4]: 0.289 µM (active) | IC50 [15]: 10.6 µM (active) | IC50 [16]: 9.32 µM (active) | EC50 [6]: 26.7 µM (active) | EC50 (Beta-galactosidase [17]): > 31.5 µM (inactive) | IC50 [18]: > 32 µM | EC50 (Hexokinase HKDC1): 15.5 µM (active) | EC50 (Hexokinase-1): > 80 µM (inactive) | IC50 [19]: 32.2 µM (active) | IC50 [20]: > 100 µM (inactive) | IC50 (Prothrombin): > 100 µM (inactive) | IC50 (Protein Wnt-3a): 11.4 µM (active)

CC(C)Oc1ccc(C(=O)N/N=C/c2ccc(-c3ccc(S(=O)(=O)Nc4ncccn4)cc3)o2)cc1
IC50 (Aminopeptidase N): 23.1 µM (active)
